The subject of the assay is lactating Holstein cows. Nature of the assay: Experiment 1: pregnancies per AI (P/AI) after one vs. two cloprostenol sodium injections in Double-Ovsynch, FTAI. The format is in vivo, cattle. The note with it: for P/AI: quartiles 2, 3 and 4 combined. The procedure:
An experiment was conducted to determine the effectiveness of the exogenous administration of hormones for synchronizing the estrous cycles of lactating dairy cattle and resulting pregnancy rates subsequent to FTAI. A total of 373 lactating Holstein cows (172 primiparous, 201 multiparous) were synchronized with a Double-Ovsynch program comprising a first or presynchronization Ovsynch phase followed by a second Ovsynch phase. All animals were synchronized using a GnRH composition (about 100 mcg of gonadorelin acetate per mL, GONAbreed®, Parnell Technologies Pty Ltd, Alexandria, Australia) and a PGF2α analog composition (about 250 mcg of cloprostenol sodium per mL, estroPLAN®, Parnell Technologies Pty Ltd, Alexandria, Australia). The first Ovsynch phase began at about 51 to about 57 days in milk where the cows received a first 1 mL intramuscular injection of a gonadorelin acetate composition. At about 58 to about 64 days in milk, the cows received a first 2 mL intramuscular injection of a cloprostenol sodium composition. At about 61 to about 67 days in milk, the cows received a second 1 mL intramuscular injection of a gonadorelin acetate composition concluding the first Ovsynch phase. The animals were then synchronized with a second Ovsynch phase comprising an Ovsynch-56 protocol beginning at about 68 to about 74 days in milk where the cows received a third 1 mL intramuscular injection of gonadorelin acetate composition. At about 75 to about 81 days in milk, the animals received a second 2 mL intramuscular injection of a cloprostenol sodium composition. At about 77 to about 83 days in milk (about 56 hours after the second injection of a cloprostenol sodium composition), the animals received a fourth 1 mL intramuscular injection of a gonadorelin acetate composition. And at about 78 to about 84 days in milk (about 16 hours after the fourth injection of the gonadorelin acetate composition), the animals receive AI, concluding the second Ovsynch phase. […] The experimental protocol is shown in the diagram of FIG. 2. Statistical analyses were performed with SAS (SAS Institute, 2006). Variables with a binomial distribution, such as P/AI and percentage of animals with CL regression, were analyzed by logistic regression using the LOGISTIC procedure. One-tailed comparisons were utilized throughout the study for comparison of the effect of an additional cloprostenol sodium injection on CL regression and animals pregnant to the FTAI. Continuous variables were analyzed using ANOVA with logistic regression utilized to compare the relationship between circulating P4 and the binomial traits. Animals with ≦2.0 ng/mL P4 on day of PGF were removed from the analysis (n=29; 13 primiparous, 16 multiparous) due to lack of synchronization to the double Ovsynch protocol. Therefore, all analyses were done with a total of 344 lactating dairy cows (n=159 primiparous; n=185 multiparous). Statistical differences were considered significant for P≦0.05 and as a tendency for P≦0.15.

Where “and” joins values, the source holds several entries; their conditions need not be identical. Identical values can stand only once.

Consider `O=C(O)CCC/C=C\CC1C(O)CC(O)C1/C=C/C(O)COc1cccc(Cl)c1` (stereo not shown) [cloprostenol sodium], for which the “Effect of PGF, relative difference in P/AI (two minus one, divided by one)” value runs as follows: (multiparous) 18.9% (P = 0.15); (overall) 15.2% (P = 0.13); (primiparous) 7.11% (P = 0.35). The “Pregnant/AI, % (n/n)” value runs as follows: (one injection, Quartile 1, [P4] 2.0-4.8 at first injection) 31.0% and 31.0 (13/42) %; (one injection, Quartile 2, [P4] 4.9-6.7) 40.0% and 40.0 (18/45) %; (one injection, Quartile 3, [P4] 6.8-8.7) 47.7% and 47.7 (21/44) %; (one injection, Quartile 4, [P4] 8.8-12) 44.4% and 44.4 (20/45) %; (two injections, Quartile 1, [P4] 2.0-5.4 at first injection) 31.7% and 31.7 (13/41) %; (two injections, Quartile 2, [P4] 5.5-7.0) 46.7% and 46.7 (21/45) %. Also, the “Pregnant/AI, % (n/n)” value was 55.8% and 55.8 (24/43) % (two injections, Quartile 3, [P4] 7.1-8.6); 56.4% and 56.4 (22/39) % (two injections, Quartile 4, [P4] 8.7-12). The “percentage of cows pregnant/AI (P/AI)” value by setting is: (one injection, multiparous) 37.5% (36/96); (one injection, overall) 40.1% (72/176); (one injection, primiparous) 45.0% (36/80); (two injections, multiparous) 44.6% (41/89); (two injections, overall) 46.2% (80/168); (two injections, primiparous) 48.2% (39/79). The P/AI stood at 44.0% (one injection) and 52.8% (two injections).

For the origin of these results see patent US20170065667A1, “METHODS FOR SYNCHRONIZATION OF ESTROUS CYCLES AND OVULATION FOR FIXED TIME ARTIFICIAL INSEMINATION IN CATTLE” (Parnell Technologies Pty Ltd., priority 2014, published 2017).
